This assay can be described thus: KI for pyridoxal 5'-phosphate (PLP)-dependent Gamma-amino-N-butyrate transaminase at pH 7.4.

pKi: −log10 of the molar value.

On to `NC1C=C(C(=O)O)OC1` (stereo unspecified) [4-Amino-4,5-dihydro-furan-2-carboxylic acid anion], for which the negative-log Ki (pKi) – broadly, the negative decadic logarithm of the Ki, by convention in mol/L – is 5.20.
